From patent publication US20250066388A1, “1,3,4,7-TETRAHYDRO-2H-PYRROLO[3',2':5,6]PYRIDO[2,3-B][1,4]OXAZEPINE BCL-2 INHIBITORS” (AbbVie Inc., priority 2022, published 2025)

Columns and labels:
[1] = target: Bcl-2 protein (Homo sapiens (Human), UniProt P10415); experiment: TR-FRET binding assay, Bcl-2; settings: F-Bak peptide probe, GST-Bcl-2
Procedure: (§1) Determination of the utility of compounds having Formula (I) or Formula (II) as binders to and inhibitors of anti-apoptotic Bcl-2 proteins was performed using the Time Resolved-Fluorescence Resonance Energy Transfer (TR-FRET) Assay. Tb-anti-GST antibody was purchased from Invitrogen (Catalog No. PV4216).
A Bcl-2 human encoding sequence was cloned into a pET41A vector (Novagen). The protein was expressed with E. coli. BL21(DE3)-T1R strain in OETB autoinduction medium at 30° C. for 25 hours. The cell pellets were resuspended in lysis buffer (50 mM Tris, 140 mM NaCl, 1 mM DTT, 10% Glycerol, 2 mM MgCl2, pH 7.3) and lysed with Microfluidizer. The Bcl-2 protein in clarified cell-lysate was purified with affinity chromatography (GST and Ni-NTA). The eluate was loaded onto a Superdex 75 column and further purified with a Q Sepharose column. The protein was purified on a phenyl hydrophobic interaction column and dialyzed in the storage buffer (50 mM Tris, 50 mM NaCl, 2 mM DTT, pH 7.5) and stored at −80° C.
(§2) […] of a protein (Bcl-2 or Bcl-xL)/probe/antibody mixture pre-equilibrated for one hour in assay buffer was added to each well at final concentrations listed in Table 6 below.
(§3) The samples were then mixed on a shaker for 1 minute and equilibrated for an additional 3 hours at room temperature. For each assay plate, a probe/antibody and protein/antibody/probe mixture were included as a negative and a positive control, respectively. Fluorescence was measured on the Envision (Perkin Elmer) using a 340/35 nm excitation filter and 520/525 (F-Bak) and 495/510 nm (Tb-labeled anti-GST antibody) emission filters. Inhibition constants (Ki) were determined using Wang's equation (Wang FEBS Lett. 1995, 360, 111-114). The TR-FRET assay can be performed in the presence of varying concentrations of human serum (HS) to determine apparent half maximal inhibitory concentration (IC50) after HS protein binding.
(§4) Inhibition constants were determined using Wang's equation (Wang FEBS Lett. 1995, 360:111-4).

[2] = target: Bcl-xL protein (Homo sapiens (Human), UniProt Q07817); experiment: TR-FRET binding assay, Bcl-xL; settings: F-Bak peptide probe
Bcl-xL protein, sequence (Q07817 other isoform, or with tags, fused parts or gaps): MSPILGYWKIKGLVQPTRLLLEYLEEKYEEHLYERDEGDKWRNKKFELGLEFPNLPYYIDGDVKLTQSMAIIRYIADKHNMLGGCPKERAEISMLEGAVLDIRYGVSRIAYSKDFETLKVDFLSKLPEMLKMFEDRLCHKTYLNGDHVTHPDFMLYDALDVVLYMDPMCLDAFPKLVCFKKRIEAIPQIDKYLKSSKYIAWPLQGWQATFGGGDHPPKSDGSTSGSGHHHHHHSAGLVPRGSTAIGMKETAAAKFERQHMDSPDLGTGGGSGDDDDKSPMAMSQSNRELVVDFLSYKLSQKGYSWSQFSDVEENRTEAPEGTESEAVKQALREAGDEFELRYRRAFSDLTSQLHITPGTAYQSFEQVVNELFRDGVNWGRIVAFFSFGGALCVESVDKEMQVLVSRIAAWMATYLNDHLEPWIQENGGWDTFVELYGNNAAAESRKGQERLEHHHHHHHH
Procedure: as §1
A human Bcl-xL encoding sequence was cloned into a pET41A vector. The protein was expressed with E. coli. BL21(DE3)-T1R strain in OETB autoinduction medium at 30° C. for 25 hours. The cell pellets were resuspended in lysis buffer (50 mM Tris, 140 mM NaCl, 1 mM DTT, 10% Glycerol, 0.1% Triton X-100, pH 7.5) and lysed with Microfluidizer. The Bcl-xL protein in clarified cell-lysate was purified with GST affinity chromatography. The eluate was dialyzed in the storage buffer (1×PBS, 10% Glycerol, 2 mM DTT, 1 mM Sodium Azide, pH 7.4) and stored at −80° C.
as §2, §3, §4

Bcl-2 protein, sequence (P10415 other isoform, or with tags, fused parts or gaps): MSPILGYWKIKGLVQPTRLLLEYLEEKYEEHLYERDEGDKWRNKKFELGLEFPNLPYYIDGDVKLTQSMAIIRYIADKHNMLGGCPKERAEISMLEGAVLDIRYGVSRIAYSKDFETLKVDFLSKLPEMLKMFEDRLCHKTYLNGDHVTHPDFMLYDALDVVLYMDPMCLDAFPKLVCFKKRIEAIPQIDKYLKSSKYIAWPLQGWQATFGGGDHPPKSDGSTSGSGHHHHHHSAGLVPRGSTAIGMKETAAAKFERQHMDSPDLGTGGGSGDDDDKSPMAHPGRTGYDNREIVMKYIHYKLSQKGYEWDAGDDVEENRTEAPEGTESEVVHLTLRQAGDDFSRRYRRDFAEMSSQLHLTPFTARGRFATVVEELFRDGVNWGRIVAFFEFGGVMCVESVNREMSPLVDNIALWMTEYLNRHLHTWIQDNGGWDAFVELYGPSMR

Structure (SMILES)	Ki [1] [nM]	Ki [2] [nM]
CC1(C)CC(c2ccc(Cl)cc2)=C2CN3CCN(c4ccc(C(=O)NS(=O)(=O)c5cnc(OCC6(F)CCOCC6)c(Cl)c5)c(N5CCCOc6nc7[nH]ccc7cc65)c4)C[C@H]3COCCCO[C@@H]2C1 [Example 7, N-((5-chloro-6-((4-fluorotetrahydro-2H-pyran-4-yl)methoxy)pyridin-3-yl)sulfonyl)-4-((4aS,10aR)-14-(4-chlorophenyl)-12,12-dimethyl-1,2,4a,5,8,9,10a,11,13,15-decahydro-7H,12H-benzo[f]pyrazino[2,1-c][1,8]dioxa[4]azacycloundecin-3(4H)-yl)-2-(3,4-dihydro-2H-pyrrolo[3′,2′:5,6]pyrido[2,3-b][1,4]oxazepin-1(7H)-yl)benzamide]	0.0503	> 661
CC1(C)CC(c2ccc(Cl)cc2)=C2CN3CCN(c4ccc(C(=O)NS(=O)(=O)c5cnc(OC[C@]6(F)CC[C@@H](N7CCOCC7)CC6)c(Cl)c5)c(N5CCCOc6nc7[nH]ccc7cc65)c4)C[C@H]3COCCCO[C@@H]2C1 [Example 10, N-((5-chloro-6-(((1s,4s)-1-fluoro-4-morpholinocyclohexyl)methoxy)pyridin-3-yl)sulfonyl)-4-((4aS,10aR)-14-(4-chlorophenyl)-12,12-dimethyl-1,2,4a,5,8,9,10a,11,13,15-decahydro-7H,12H-benzo[f]pyrazino[2,1-c][1,8]dioxa[4]azacycloundecin-3(4H)-yl)-2-(3,4-dihydro-2H-pyrrolo[3′,2′:5,6]pyrido[2,3-b][1,4]oxazepin-1(7H)-yl)benzamide]	0.66	5.91
COCCN1CCC(F)(COc2ncc(S(=O)(=O)NC(=O)c3ccc(N4CCN5CC6=C(c7ccc(Cl)cc7)CC(C)(C)C[C@H]6OCCCOC[C@@H]5C4)cc3N3CCCOc4nc5[nH]ccc5cc43)cc2Cl)CC1 [Example 22, N-((5-chloro-6-((4-fluoro-1-(2-methoxyethyl)piperidin-4-yl)methoxy)pyridin-3-yl)sulfonyl)-4-((4aS,10aR)-14-(4-chlorophenyl)-12,12-dimethyl-1,2,4a,5,8,9,10a,11,13,15-decahydro-7H,12H-benzo[f]pyrazino[2,1-c][1,8]dioxa[4]azacycloundecin-3(4H)-yl)-2-(3,4-dihydro-2H-pyrrolo[3′,2′:5,6]pyrido[2,3-b][1,4]oxazepin-1(7H)-yl)benzamide]	0.339	14.7
CC1(C)CC(c2ccc(Cl)cc2)=C2CN3CCN(c4ccc(C(=O)NS(=O)(=O)c5ccc(NC[C@@H]6CC[C@@H](O)CO6)c([N+](=O)[O-])c5)c(N5CCCOc6nc7[nH]ccc7cc65)c4)C[C@H]3COCCCO[C@@H]2C1 [Example 27, 4-((4aS,10aR)-14-(4-chlorophenyl)-12,12-dimethyl-1,2,4a,5,8,9,10a,11,13,15-decahydro-7H,12H-benzo[f]pyrazino[2,1-c][1,8]dioxa[4]azacycloundecin-3(4H)-yl)-2-(3,4-dihydro-2H-pyrrolo[3′,2′:5,6]pyrido[2,3-b][1,4]oxazepin-1(7H)-yl)-N-((4-((((2S,5R)-5-hydroxytetrahydro-2H-pyran-2-yl)methyl)amino)-3-nitrophenyl)sulfonyl)benzamide]	1.72	7.41
CC1(C)CC(c2ccc(Cl)cc2)=C2CN3CCN(c4ccc(C(=O)NS(=O)(=O)c5ccc(NC[C@H]6C[C@@](O)(CF)C6)c([N+](=O)[O-])c5)c(N5CCCOc6nc7[nH]ccc7cc65)c4)C[C@H]3COCCCO[C@@H]2C1 [Example 8, 4-((4aS,10aR)-14-(4-chlorophenyl)-12,12-dimethyl-1,2,4a,5,8,9,10a,11,13,15-decahydro-7H,12H-benzo[f]pyrazino[2,1-c][1,8]dioxa[4]azacycloundecin-3(4H)-yl)-2-(3,4-dihydro-2H-pyrrolo[3′,2′:5,6]pyrido[2,3-b][1,4]oxazepin-1(7H)-yl)-N-((4-((((1r,3r)-3-(fluoromethyl)-3-hydroxycyclobutyl)methyl)amino)-3-nitrophenyl)sulfonyl)benzamide]	0.448	0.125
CC1(C)CC(c2ccc(Cl)cc2)=C2CN3CCN(c4ccc(C(=O)NS(=O)(=O)c5cnc(OC[C@]6(F)CC[C@H](N7CCOCC7)CC6)c(Cl)c5)c(N5CCCOc6nc7[nH]ccc7cc65)c4)C[C@H]3COCCCO[C@@H]2C1 [Example 11, N-((5-chloro-6-(((1r,4r)-1-fluoro-4-morpholinocyclohexyl)methoxy)pyridin-3-yl)sulfonyl)-4-((4aS,10aR)-14-(4-chlorophenyl)-12,12-dimethyl-1,2,4a,5,8,9,10a,11,13,15-decahydro-7H,12H-benzo[f]pyrazino[2,1-c][1,8]dioxa[4]azacycloundecin-3(4H)-yl)-2-(3,4-dihydro-2H-pyrrolo[3′,2′:5,6]pyrido[2,3-b][1,4]oxazepin-1(7H)-yl)benzamide]	0.936	17.3
CC1(C)CC(c2ccc(Cl)cc2)=C2CN3CCN(c4ccc(C(=O)NS(=O)(=O)c5ccc(NC[C@H]6C[C@](O)(CF)C6)c([N+](=O)[O-])c5)c(N5CCCOc6nc7[nH]ccc7cc65)c4)C[C@H]3COCCCO[C@@H]2C1 [Example 16, 4-((4aS,10aR)-14-(4-chlorophenyl)-12,12-dimethyl-1,2,4a,5,8,9,10a,11,13,15-decahydro-7H,12H-benzo[f]pyrazino[2,1-c][1,8]dioxa[4]azacycloundecin-3(4H)-yl)-2-(3,4-dihydro-2H-pyrrolo[3′,2′:5,6]pyrido[2,3-b][1,4]oxazepin-1(7H)-yl)-N-((4-((((1s,3s)-3-(fluoromethyl)-3-hydroxycyclobutyl)methyl)amino)-3-nitrophenyl)sulfonyl)benzamide]	0.297	15
COCCO[C@H]1CC[C@H](CNc2ccc(S(=O)(=O)NC(=O)c3ccc(N4CCN5CC6=C(c7ccc(Cl)cc7)CC(C)(C)C[C@H]6OCCCOC[C@@H]5C4)cc3N3CCCOc4nc5[nH]ccc5cc43)cc2[N+](=O)[O-])OC1 [Example 35, 4-((4aS,10aR)-14-(4-chlorophenyl)-12,12-dimethyl-1,2,4a,5,8,9,10a,11,13,15-decahydro-7H,12H-benzo[f]pyrazino[2,1-c][1,8]dioxa[4]azacycloundecin-3(4H)-yl)-2-(3,4-dihydro-2H-pyrrolo[3′,2′:5,6]pyrido[2,3-b][1,4]oxazepin-1(7H)-yl)-N-((4-((((2R,5S)-5-(2-methoxyethoxy)tetrahydro-2H-pyran-2-yl)methyl)amino)-3-nitrophenyl)sulfonyl)benzamide]	0.0891	23.1
CC1(C)CC(c2ccc(Cl)cc2)=C2CN3CCN(c4ccc(C(=O)NS(=O)(=O)c5ccc(OCC6(F)CCN(C7COC7)CC6)c(Cl)c5)c(N5CCCOc6nc7[nH]ccc7cc65)c4)C[C@H]3COCCCO[C@@H]2C1 [Example 9, N-(3-chloro-4-{[4-fluoro-1-(oxetan-3-yl)piperidin-4-yl]methoxy}benzene-1-sulfonyl)-4-[(4aS,10aR)-14-(4-chlorophenyl)-12,12-dimethyl-1,2,4a,5,8,9,11,12,13,15-decahydro-7H,10aH-pyrazino[2,1-g][1,5,8]benzodioxazacycloundecin-3(4H)-yl]-2-(3,4-dihydro-2H-pyrrolo[3′,2′:5,6]pyrido[2,3-b][1,4]oxazepin-1(7H)-yl)benzamide]	0.267	20.6
CC1(C)CC(c2ccc(Cl)cc2)=C2CN3CCN(c4ccc(C(=O)NS(=O)(=O)c5cnc(OCC6(F)CCN(C7COC7)CC6)c(Cl)c5)c(N5CCCOc6nc7[nH]ccc7cc65)c4)C[C@H]3COCCCO[C@@H]2C1 [Example 4, N-((5-chloro-6-((4-fluoro-1-(oxetan-3-yl)piperidin-4-yl)methoxy)pyridin-3-yl)sulfonyl)-4-((4aS,10aR)-14-(4-chlorophenyl)-12,12-dimethyl-1,2,4a,5,8,9,10a,11,13,15-decahydro-7H,12H-benzo[f]pyrazino[2,1-c][1,8]dioxa[4]azacycloundecin-3(4H)-yl)-2-(3,4-dihydro-2H-pyrrolo[3′,2′:5,6]pyrido[2,3-b][1,4]oxazepin-1(7H)-yl)benzamide]	0.28	18.8
